≈ marks a conversion by molar mass, not a printed value. Where two headings read alike, the source gives them in different places.
Experiments:
reverse transcriptase = reverse transcriptase (Human immunodeficiency virus type 1 group M subtype B, UniProt P04585); assay: Reverse transcriptase assay with disrupted HIV; type: biochemical; parameters: made in house; host or cells: virions from culture supernatants of HIV-producing Molt-4 cells (Molt-4/HIV), disrupted with Triton X-100
Description: Supernatants of Molt-4/HIV were concentrated 100 times by sucrose gradient ultracentrifugation. The viral pellets were disrupted by addition of suspension buffer containing 5 mM Tris-HCI(pH 8.1), 0.5 M KCI, 0.1 mM dithiothreitol and 0.1 % Triton® X-100. The assay for reverse transcriptase activity was performed at 37°C for 1 h with a 10 0 of the disrupted HIV in a final volume of 50 µl containing 50 mM Tris-HCI(pH 8.4), 2 mM dithiothreitol, 100 mM KCI, 10 mM MgCI, 0.01 % Triton X-100. 1 wCi 3H-thymidine triphosphate (57 Ci/m mol.; Amersham, Buckinghanshire, UK) and 50 gg/ml poly(rA)/oligo(dT)(P-L Biochemicals Inc., Milwaukee, Wis). The reaction was stopped with 5% trichloroacetic acid, and precipitates were collected on glass fibre filters and counted in a liquid scintillation counter (Harada et. al; Virology 146, p.272-281,1985b). The assays were carried out in triplicate.

VSV = conditions: cited from earlier work
herpes simplex virus [1] = conditions: cited from earlier work
Acute toxicity, rat = type: in vivo; conditions: Oral administration (rat)
[2] = test system: normal pheripleral blood monouclear cells; assay: 3H-thymidine uptake in normal peripheral blood mononuclear cells (lectin-induced blast formation); type: cell-based; conditions: normal lymphocytes, 3 days
Description: (§1) MT-4 cells were adjusted to 3x10^5 cells/ml in fresh medium and cultured with various concentrations of glycyrrhizin in a 96-flat bottom well microtiter plate for 3 days. 10^6 pheripleral blood monouclear cells were cultured with 1 wg/ml of poly clonal mitogen PHA or concanavalin A various concentrations of glycyrrhizin for 3 days. Cells were incubated with either 1 µCi/well of ^3H-thymidine (20 Ci/m mol.; New Engl.Nuclear, Boston, MA), for the last 18 hours. The cells were harvested on a glassfiber filter paper and counted in a liquid scintillation counter. All experiments were carried out in triplicate.

HIV [3] = assay: Cell fusion of HIV infected clone No.8 cells of Molt-4; type: cell-based; conditions: 1 mg/ml, day 6 and 9
HIV particles = assay: Inactivation of HIV particles by glycyrrhizin (pre-incubation, then plaque assay); type: cell-based; conditions: even at 2 mg/ml, 60 min at 37°C
Description: 0.5 ml of HIV containing plaque forming units was mixed with 0.5 ml of various concentrations of glycyrrhizin in the test tubes and incubated at 37°C.
After 60 min. incubation 0.1 ml of each mixture was diluted with 19.9 ml of culture medium, and 0.1 ml of the […] diluted virus preparation was added. After adsorption, 1 ml of the agarose overlay medium consisting of RPMI-1640 medium with 10 % fetal calf serum, antibiotics and 0.6 % agarose was poured in. The maximum concentration of the diluted glycyrrhizin in plaque assay medium was 0.01 mg/ml, and this concentration itself reduced about 10 % of HIV induced plaque forming activity in MT-4 cells.

Varicella-Zoster virus = conditions: human embryonic fibroblast; cited from earlier work
HIV [4] = assay: Reverse transcriptase activity in culture fluids of HIV infected clone No.8 cells of Molt-4; type: cell-based; conditions: 1 mg/ml
HIV [5] = type: cell-based
Description: HIV was obtained from the culture supernatant of Molt-4/HIV. Titer of virus preparation was 6x10^4 plaque forming units/ml. Infection of MT-4 cells and clone No. 8 cells of Molt-4 with HIV was made at a multiplicity of infectin of 0.002.
To evaluate the direct effect of glycyrrhizin on the infection of HIV in MT-4 cells, plaque assay using agarose overlay medium with various concentrations of glycyrrhizin was performed. Briefly, in order to fasten MT-4 cells onto culture vessels, 35 mm polystyrene tissue culture dishes were coated with poly-L-lysine (Sigma Chemical Co., St. Louis,Mo) One and half milliliters of 1.50 x 10^6/ml MT-4 cells were dropped onto each poly-L-lysine-coated dish and incubator for 1 hour at room temperature. The dishes were gently washed with phosphate buffered saline to remove unbound cells, 100 p.1 of appropriate diluted virus preparation was slowly added and incubated for 1 hour at room temperature for virus adsorption. After adsorption, 1 ml of the agarose overlay medium consisting of RPMI 1640 medium with 10 % fetal calf serum, antibiotics and 0.6 % agarose (Sea plaque Agarose, Marine Colloid Corp., Rockland, Me) was poured into each dish. The dishes were incubated in a C02 incubator at 37°C for 3 days and 1 ml of agarose overlay medium containing neutral red was added. The dishes were incubated 3 more days and visible plaque were counted. All experiments were carried out in triplicate.

HIV [6] = assay: Cytopathic effect in HIV infected clone No.8 cells of Molt-4 (viable cells, viability); type: cell-based; conditions: 1 mg/ml
herpes simplex virus [7] = conditions: human embryonic fibroblast; cited from earlier work
MT-4 cells [8] = assay: 3H-thymidine uptake in MT-4 cells (DNA synthesis); type: cell-based; conditions: 3 days
Description: as §1

[9] = mouse, in vivo, ip
MT-4 cells [10] = assay: Growth of MT-4 cells not exposed to virus (viable cell count); type: cell-based; conditions: 2 mg/ml
From the text: • Fig. 1 is a view showing direct effect of glycyrrhizin on HIV induced plaque forming activity in MT-4 cells. Results are the mean of two experiments each performed in triplicate. • Fig. 2 is a view showing inhibition of cytopathic effect of HIV on MT-4 cells by glycyrrhizin. […] Data are from a single experiment, representative of four separate experiments. […] The viable cells were detected by trypan blue exclusion staining method.

HIV [11] = assay: Assay for HIV induced cytopathic effects in HIV infected MT-4 cells (viable cells, trypan blue exclusion); type: cell-based; conditions: day 3, multiplicity of infection 0.002
HIV [12] = assay: HIV-specific antigen expression in HIV infected clone No.8 cells of Molt-4 (immunofluorescence); type: cell-based; conditions: 1 mg/ml
HIV [13] = assay: Assay for HIV specific antigen expression in HIV infected MT-4 cells (indirect immunofluorescence); type: cell-based; conditions: for percentage of IF-positive cells: day 3 after infection
HIV [14] = assay: Number of HIV in culture fluids of infected clone No.8 cells of Molt-4 (MT-4 cell plaque assay system); type: cell-based; conditions: 1 mg/ml

**Q.** For Cc1cn([C@H]2C[C@H](N=[N+]=[N-])[C@@H](COP(=O)(O)OP(=O)(O)OP(=O)(O)O)O2)c(=O)[nH]c1=O [3' -azido-TIP, 3'-azido-3'-deoxythymidine triphosphate], which “inhibition of reverse transcriptase activity” value (reverse transcriptase; 0.005 mg/ml) is on record?
**A.** The value was 97%.

**Q.** What does the source list for CC1(C)[C@@H](O)CC[C@]2(C)[C@H]3C(=O)C=C4[C@@H]5C[C@@](C)(C(=O)O)CC[C@]5(C)CC[C@@]4(C)[C@]3(C)CC[C@@H]12 [glycyrrhetinic acid]?
**A.** inactivation of virus particles (VSV; VSV incubated with compound for 30 min): inactivates the virus particles; replication of VSV (VSV): suppress the replication; replication of herpes simplex virus (herpes simplex virus [1]): suppress the replication; inactivation of virus particles (herpes simplex virus [1]; herpes simplex virus incubated with compound for 30 min): inactivates the virus particles

**Q.** What does the source list for CC1(C)[C@@H](O[C@H]2O[C@H](C(=O)O)[C@@H](O)[C@H](O)[C@H]2O[C@@H]2O[C@H](C(=O)O)[C@@H](O)[C@H](O)[C@H]2O)CC[C@]2(C)[C@H]3C(=O)C=C4[C@@H]5C[C@@](C)(C(=O)O)CC[C@]5(C)CC[C@@]4(C)[C@]3(C)CC[C@@H]12 [glycyrrhizin]?
**A.** LD5o (Acute toxicity, rat): 3000 mg/kg; ID50 on PHA response ([2]; PHA): 2100 µg/mL (≈ 2550 µM); ID50 on concanavalin A response ([2]; concanavalin A): 2000 µg/mL (≈ 2430 µM); fusion on clone No.8 cells of Molt-4 (HIV [3]): did not occur; inactivation of HIV particles (HIV particles): did not inactivate; ID50 against Varicella-Zoster virus (Varicella-Zoster virus): 580 µg/mL (≈ 705 µM); RT (HIV [4]; on day 3, CPM per 10^4 viable cells): 1536 cpm; RT (HIV [4]; on day 6, CPM per 10^4 viable cells): 5369 cpm; RT (HIV [4]; on day 9, CPM per 10^4 viable cells): 4369 cpm; reduction of HIV induced plaque forming activity in MT-4 cells (HIV [5]; 0.01 mg/ml in plaque assay medium): about 10%; suppression of plaque formation (HIV [5]; 0.05 mg/ml in agarose overlay medium, MT-4 cells): 34.2%; inhibition of plaque formation (HIV [5]; 0.5 mg/ml, MT-4 cells): completely inhibited; inhibition of plaque formation (HIV [5]; 1 mg/ml, MT-4 cells): completely inhibited; selectivity index (the ratio on the ID50 for host cell DNA synthesis to the average ID50 for HIV) (HIV [5]; MT-4 cells): 17.2; ID50 (plaque formation of HIV) (HIV [5]; MT-4 cells, Fig.1): 125 µg/mL; viability (HIV [6]; on day 3): 91.4%; viable cells (HIV [6]; on day 3): 1.5e+06 mL⁻¹; viability (HIV [6]; on day 6): 83.4%; viable cells (HIV [6]; on day 6): 3.4e+06 mL⁻¹; viability (HIV [6]; on day 9): 84.4%; viable cells (HIV [6]; on day 9): 7.57e+06 mL⁻¹; ID50 against herpes simplex virus (herpes simplex virus [7]): 600 µg/mL (≈ 729 µM); ID50 for DNA synthesis of uninfected MT-4 cells (MT-4 cells [8]): 2150 µg/mL; LD5o [9]: 225 to 244 mL/kg; LD5o (Acute toxicity, mouse; Intravenous injection 2 % aqueous solution (mouse)): 682.5 mg/kg; LD5o (Acute toxicity, mouse; Subcutaneous injection 5 % aqueous solution (mouse)): 1873.3 mg/kg; growth inhibition (MT-4 cells [10]): 50%; inhibition of reverse transcriptase activity of HIV (in words) (reverse transcriptase; even at 10 mg/ml): did not inhibit; growth inhibition of infected cultures as compared with the uninfected MT-4 cells (HIV [11]; 0.25 mg/ml): not significant; growth inhibition of infected cultures as compared with the uninfected MT-4 cells (HIV [11]; 0.5 mg/ml): not significant; growth inhibition of infected cultures as compared with the uninfected MT-4 cells (HIV [11]; 1 mg/ml): not significant; IF posivive cells (HIV [12]; on day 6): 7.1%; IF positive cells (HIV [12]; on day 9): 5.8%; percentage of IF-positive cells (HIV [13]; 0.005 mg/ml): 70.9; percentage of IF-positive cells (HIV [13]; 0.05 mg/ml): 69.3; expression of HIV-specific antigen (in words) (HIV [13]; 0.25 mg/ml): significant inhibition; percentage of IF-positive cells (HIV [13]; 0.25 mg/ml): 23.3; expression of HIV-specific antigen (in words) (HIV [13]; 0.5 mg/ml): almost completely suppressed; percentage of IF-positive cells (HIV [13]; 0.5 mg/ml): 1.0; expression of HIV-specific antigen (in words) (HIV [13]; 1 mg/ml): almost completely suppressed; percentage of IF-positive cells (HIV [13]; 1 mg/ml): 0.6; number of HIV (HIV [14]; on day 3): 500< pfu/ml; number of HIV (HIV [14]; on day 6): 500< pfu/ml; number of HIV (HIV [14]; on day 9): 1000 pfu/ml
